Where a SMILES comes first, the peptide text is derived from it. Where no end group is shown, it is not given here.
Legend:
MDAH2774 cells = assay: Ki67 immunocytochemistry (FIG. 7B, 7D, 7F); assay type: cell-based, human; conditions: for rhSTIP1-increased Ki67 staining: with inhibitor, antibody or siRNA
Description: (§1) The BrdU assay and Ki67 staining procedures have been reported previously (Tsai et al 2012, Wang et al 2010). For BrdU assays, cancer cells were seeded at a density of 10^4 cells/well in a 96-well plate overnight, and cultured in serum-free medium for 24 h. Cancer cells were treated with 0.4 μM of rhSTIP1 in the presence of BrdU for 24 h. DNA synthesis activity was measured using BrdU ELISA kit (Roche Applied Science). For immunocytochemistry studies of Ki-67, MDAH2774 cells were cultured on Lab-Tek II chamber slides (Nalge Nunc International, Denmark) overnight. After serum starvation or RNAi transfection for 72 h, cancer cells were treated with 0.4 μM of STIP1 with or without an STIP1 antibody for another 24 h. The slides were fixed with 99.9% of ethanol, rehydrated with PBS, treated with 3% of hydrogen peroxide for 20 min, permeabilized with 0.1% Triton X-100 (Sigma) for 15 min, and stained with anti-Ki67 antibody (Thermo Fisher Scientific, Rockford, Ill.).
(§2) BrdU is an analogue of thymidine which can replace thymidine during DNA replication, and Ki67 is a nuclear protein that is associated with cell proliferation. BrdU incorporation assay and immunocytochemistry for endogenous Ki67 were used as an index for cell proliferation. Treatment with rhSTIP1 increased the BrdU incorporation rate and Ki67 staining of ovarian cancer cells (FIG. 7A to FIG. 7F). These activities were reduced by treatment with an ALK2/ALK3 inhibitor (LDN193189) and an ERK inhibitor (PD98059) (FIGS. 7A and 7B), an STIP1 antibody (FIGS. 7C and 7D), and ALK2 siRNA and STIP1 siRNA (FIGS. 7E and 7F).

ovarian cancer cells = assay: BrdU proliferation assay (FIG. 7A, 7C, 7E); assay type: cell-based, human; conditions: for rhSTIP1-increased BrdU incorporation: with inhibitor, antibody or siRNA
Description: as §1, §2

[1] = tested on: ovarian cancer cells (MDAH2774); assay: MTT cell viability of transfected MDAH2774 cells; assay type: cell-based, human; conditions: for Normalized O.D / Original O.D / cancer cell viability (in words, FIG. 10B and Table 2): MTT, MDAH2774; for Normalized O.D / Original O.D: peptide 200 uM; for cancer cell viability (in words, FIG. 10B and Table 2): transfected peptides
From the text: Human ovarian cancer cell lines TOV112D, TOV21G, SKOV3, MDAH2774, ES2, MDAH2774, BG1; human endometrial cancer cell line RL95-2, human pancreatic cancer cell line BxPC3, breast cancer cell line (MCF7) and colon cancer cell line (HT29) were obtained from ATCC (Rockville, Md., USA). Lung cancer cell line CL1-0 and nasopharyngeal carcinoma cell line NPC-BM1 were obtained from Dr. C C Wu (Department of Medical Biotechnology and Laboratory Science, Chang-Gung University, Taoyuan, Taiwan), Wu et al. Mol. Cell Proteomics 9(6):11100 (20101). Mouse ovarian cancer cell line MOSEC was obtained from Dr. C L Chang (Department of Obstetrics and Gynecology, Mackay Memorial Hospital, Taipei, Taiwan), Chang et al. Cancer Research 67:10047 (2007). TOV112D, TOV21G, SKOV3, MDAH2774, ES2 and RL95-2 were cultured in Dulbecco's modified Eagle's medium/F-12 supplemented with 10% fetal bovine serum and antibiotics at 37° C. in 5% CO2 humidified atmosphere. BxPC3, CL1-0, NPC-BM1 and MOSEC cells were cultured in RPMI 1640 media supplemented with 10% fetal bovine serum.
Cancer cells were transfected with an STIP1 antibody in PLUSin reagent (Polyplus-transfection Inc., NY, USA) according to manufacturer's protocol. In summary, 2×10^3˜6×10^3 cancer cells were seeded in a 96-well plate overnight, followed by PBS rinse and the addition of 180 μl of OPTI-MEM. 0.6 μg of mouse STIP1 antibody were diluted in 20 mM HEPES, mixed with 1.2 μl of PLUSin by vortexing, followed by incubation at room temperature for 15 min. The antibody/PLUSin mixture was added to the cancer cells by gentle swirling the plate. The STIP1 antibody and the control IgG used in the working examples described herein are commercially available from Abnova Biotechnology Inc., (Taipei City, Taiwan). The STIP1 antibody in the working examples described herein can be used to detect recombinant full length STIP1 (SEQ ID NO:3).
1˜2×10^4 Cancer cells were plated per well in 96-well plates overnight, then transfected with a mouse STIP1 antibody (commercially available from Abnova Biotechnology Inc.) for 48 h before they were assessed. The inhibitory effect of the STIP1 antibody on the cancer cells was measured by the MTT [3-(4,5-Dimethylthiazol-2-yl)-2,5-Diphenyltetrazolium Bromide]method (Sigma St. Louis, Mo.). The optical density was measured at 570 nm using an automated scanning multiwell spectrophotometer (Wallac Victor2 spectrophotometer; PerkinElmer, Boston, Mass., USA).
Given the neutralizing effect of STIP1 polypeptide 520-543 (SEQ ID NO:1) on STIP1 antibody, co-transfecting STIP1 antibody and STIP1 polypeptide 520-543 in cancer cells may reduce the suppression effect of STIP1 antibody. FIG. 10A and Table 1 show cell viability of ovarian cancer cells (MDAH2774) transfected with STIP1 antibody only (positive control) and STIP1 antibody with various concentrations of STIP1 polypeptide 520-543. Cell viability was evaluated using MTT assays. […] For example, the cell viability for STIP1 antibody was 78.81% (Table 1), the cell viability for 25 uM of STIP1 polypeptide 520-543 was 102% (Table 2), and the cell viability for STIP1 antibody and […] of STIP1 polypeptide 520-543 was 56.38% (Table 1). Similarly, the cell viability for 200 uM of STIP1 polypeptide 520-543 was 28.64% (Table 2), and the cell viability for STIP1 antibody and […] of STIP1 polypeptide 520-543 was 27.67% (Table 1).

[2] = tested on: MDAH2774, ARK2, NPC-BM1, SAS, Colon 205, CL 1-0, BxPC3, HepG2 and MCF7 cells; assay: MTT assay with cell permeable peptide, cancer cell line panel (FIG. 13B); assay type: cell-based; conditions: all of the tested cancer cells
Description: (§3) Cell permeable STIP1 polypeptide 520-543 was added to the following cancer cell lines: MDAH2774 (ovarian cancer); ARK2 (endometrial cancer); NPC-BM1 (nasopharyngeal cancer); SAS (oral cancer); Colon 205 (colon cancer); CL 1-0 (lung cancer); BxPC3 (pancreatic cancer); HepG2 (liver cancer) and MCF7 (breast cancer) cells. Cancer cell viability was assessed using the MTT assay and cell death was assessed using LDH assay.

[3] = tested on: MDAH2774, ARK2, NPC-BM1, SAS, Colon 205, CL 1-0, BxPC3, HepG2 and MCF7 cells; assay: LDH assay with cell permeable peptide, cancer cell line panel (FIG. 13A); assay type: cell-based; conditions: all of the tested cancer cells
Description: as §3

SMAD1/5 phosphorylation = SMAD1/5 phosphorylation western blot / antibody neutralization assay (FIG. 6A, 6B); assay type: cell-based, human; conditions: ES2, SKOV3, TOV21G, TOV112D, BR, BG1, RL95-2, CL1-0, NPC-BM1 cell lines
Description: Cell lysates were prepared with a RIPA buffer (150 mM NaCl, 20 mM Tris-Cl pH7.5, 1% Triton X-100, 1% NP40, 0.1% SDS, 0.5% deoxycholate) containing freshly added proteinase and phosphatase inhibitors (Bionovas, Toronto). Protein concentration was measured using the Bradford method. Fifty μg of each sample was electrophoresed in 10% SDS-polyacrylamide gels, and transferred to nitrocellulose membranes. STIP1 antibody was commercially available from Abnova Biotechnology and Santa Cruz Biotechnology, Santa Cruz, Calif., actin was commercially available from Sigma, the corresponding horseradish peroxidase-conjugated antibody was commercially available from Santa Cruz Biotechnology, enhanced chemiluminescence reagent was commercially available from Millipore Inc. (Millipore, Billerica, Mass.). The signal intensity of autoradiogram was quantified using the UN-SCAN-IT software (Silk Scientific, Orem, Utah), and relative intensity of each sample was normalized by the corresponding actin intensity. For antibody neutralization assay, cancer cells were cultured in serum-free medium for 24 h, and treated with rhSTIP1 for another 24 h in the presence or absence of the STIP1 monoclonal antibody, which were pre-incubated at 37° C. for 1 h. Endogenous phospho-SMAD1/5 was detected with western blot analysis. […]

Molecule: c1ccc2c(-c3cnn4cc(-c5ccc(N6CCNCC6)cc5)cnc34)ccnc2c1 [LDN193189]
- rhSTIP1-increased Ki67 staining (MDAH2774 cells): reduced
- rhSTIP1-increased BrdU incorporation (ovarian cancer cells): reduced

Molecule: COc1cccc(-c2cc(=O)c3ccccc3o2)c1N [PD98059]
- rhSTIP1-increased Ki67 staining (MDAH2774 cells): reduced
- cell proliferation (BrdU incorporation, FIG. 7A) (ovarian cancer cells; inhibition of ERK activity): strongly inhibited cell proliferation
- rhSTIP1-increased BrdU incorporation (ovarian cancer cells): reduced

Molecule: CSCC[C@H](NC(=O)[C@H](CCSC)NC(=O)[C@H](CS)NC(=O)[C@H](CCCNC(=N)N)NC(=O)[C@H](CCC(N)=O)NC(=O)[C@H](Cc1ccc(O)cc1)NC(=O)CNC(=O)[C@H](CC(=O)O)NC(=O)[C@H](C)NC(=O)[C@H](C)NC(=O)[C@H](CCC(=O)O)NC(=O)[C@H](CCCCN)NC(=O)[C@H](CS)NC(=O)[C@H](CO)NC(=O)[C@H](CO)NC(=O)[C@@H](N)CC(=O)O)C(=O)N[C@@H](C)C(=O)N[C@@H](CCC(N)=O)C(=O)N[C@@H](Cc1ccc(O)cc1)C(=O)N[C@@H](CC(N)=O)C(=O)N[C@@H](CCCNC(=N)N)C(=O)N[C@@H](Cc1c[nH]cn1)C(=O)N[C@@H](CC(=O)O)C(=O)N[C@@H](CO)C(=O)N1CCC[C@H]1C(=O)O [Peptide 458] (H-DSSCKEAADGYQRCMMAQYNRHDSP-OH; N-terminus and C-terminus assumed)
- Normalized O.D [1]: 0.83
- Original O.D [1]: 0.13
- cancer cell viability (in words, FIG. 10B and Table 2) [1]: did not significantly suppress cancer cell viability

Molecule: VQQIMSDPAMRLILEQMQKDPQALS [Peptide 495]
- Normalized O.D [1]: 0.97
- Original O.D [1]: 0.14
- cancer cell viability (in words, FIG. 10B and Table 2) [1]: did not significantly suppress cancer cell viability
- Cell viability (%) ([1]; human, 48 h, 200 uM): 96.94%

Molecule: cell permeable STIP1 polypeptide 520-543: STIP1 polypeptide 520-543 having eight D-arginine residues; detected with anti-myc antibody (EHLKNPVIAQKIQKLMDVGLIAIR; also: octa-D-arginine attached, end not given here, myc tag; UniProt P31948 520-543, looked up, fragment)
- cell proliferation (MTT activity) [2]: inhibits cell proliferation
- cell death (LDH activity) [3]: induce cell death

Molecule: rhSTIP1: recombinant human STIP1 protein (a.a. sequence number 1 to 543)
- SMAD1/5 phosphorylation (SMAD1/5 phosphorylation): stimulates SMAD1/5 phosphorylation
- Ki67 staining (MDAH2774 cells; treatment with rhSTIP1): increased
- BrdU incorporation rate (ovarian cancer cells; treatment with rhSTIP1 (0.4 μM, 24 h)): increased
